One assay deals with cell line E3. The assay is described as follows: Differentiation of clonal hEP cell line E3 in HyStem beads, Illumina microarray gene expression. The class given is cell-based, human. The procedure: (§1) Differentiation medium is high glucose DMEM (CellGro Cat. No. 15-013-CV) with Pyruvate, 1 mM (Gibco Cat. 11360), Pen:Strep 100U/ml:100 ug/ml (Gibco Cat. No. 504284), Glutamax 2 mM (Gibco Cat. No. 35050), Dexamethasone 0.1 uM (Sigma, St. Louis, Mo., Cat. No. D1756-100), L-Proline 0.35 mM (Sigma Cat. No. D49752), 2-phospho-L-Ascorbic Acid 0.17 mM (Sigma, Cat. No. 49792, Fluka), and ITS Premix (BD, Franklin Lakes, N.J., sterile Cat. No. 47743-628) with a final concentration 6.25 ug/ml insulin, 6.25 ug/ml transferrin, 6.25 ng/ml selenious acid, serum albumin 1.25 mg/ml, 5.35 ug/ml linoleic acid. In various differentiation conditions, the Differentiation medium is supplemented with various growth factors or other differentiation factors as described herein.
(§2) The Gelin-S® component (10 mg of thiol-modified gelatin (BioTime)) is dissolved in 1.0 ml of degassed deionized water to prepare a 1% w/v solution, and polyethylene glycol diacrylate (10 mg of PEGDA) is dissolved in 0.5 ml of degassed deionized water to prepare a 2% w/v solution. Then, HyStem (1 ml, 1% w/v) is mixed with Gelin-S (1 ml, 1% w/v) immediately before use. Pelleted cells are resuspended in the recently prepared HyStem:Gelin-S (1:1 v/v) mix described above. Upon the addition of the PEGDA cross-linker, the cell suspension, at a final concentration of 2.0×10^7 cells/ml is aliquoted (25 μl/aliquot) into six-well plates (Corning® 3516; VWR, PA, USA) after partial gelation. Following complete gelation (20 min), Differentiation Medium is added to each well. Plates were then placed in a humidified incubator at 37° C. with ambient O2 and 10% CO2, and the cells were fed three-times weekly. At the desired time point, hydrogel constructs were either fixed and processed for immunohistochemical analysis or lysed using RLT (Qiagen, CA, USA) with 1% beta-mercaptoethanol for total RNA to analyze transcript expression using quantitative real-time PCR (qRT-PCR) and/or whole-genome microarray.
(§3) Total RNA was extracted directly from cells growing in 6-well plates or 10 cm tissue culture dishes using Qiagen RNeasy mini kits according to the manufacturer's instructions. RNA concentrations were measured using a Beckman DU530 or Nanodrop spectrophotometer and RNA quality was determined by denaturing agarose gel electrophoresis or using an Agilent 2100 bioanalyzer. Whole-genome expression analysis was carried out using Illumina Human Ref-8v3 or Human HT-12 v4 BeadArrays, and RNA levels for certain genes were confirmed by qRT-PCR. For the Illumina BeadArrays, total RNA was linearly amplified and biotin-labeled using Illumina TotalPrep kits (Life Technologies, Temecula, Calif., USA), and cRNA was quality-controlled using an Agilent 2100 Bioanalyzer. The cRNA was hybridized to Illumina BeadChips, processed, and read using a BeadStation array reader according to the manufacturer's instructions (Illumina, San Diego, Calif., USA). Values of less than 120 relative fluorescence units (RFUs) were considered as nonspecific background signal.

The subject of another assay is NP110SM cells. The assay is described as follows: Differentiation of clonal embryonic progenitor line NP110SM in HyStem beads, Illumina microarray gene expression. In kind it is cell-based, human. The conditions noted are these: NP110SM; 10 M CL316243 together with 50 ng/ml BMP4 and 5.0 μM rosiglitazone; FIG. 15 lane 9. The procedure: as §1
as §2, with “HyStem-C (BioTime, Inc. Alameda, Calif.) is a matrix composed of thiol-modified gelatin and thiolated hyaluronan crosslinked in vivo or in vitro with (polyethylene glycol diacrylate (PEGDA). We observed that clonal human embryonic progenitor cell lines such as those described in the present invention, could be efficiently differentiated in high-density cultures of said crosslinked collagen and hyaluronate in the following manner. HyStem-C® (BioTime, CA, USA) is reconstituted following the manufacturer's instructions. Briefly, the HyStem component (10 mg of thiol-modified hyaluronan) is dissolved in 1.0 ml of degassed deionized water for approximately 20 min to prepare a 1% w/v solution. The Gelin-S®” for “The Gelin-S®”
as §3
The line NP110SM was then exposed to differentiation in the BAT cell differentiation protocols described herein. […]

The test system of a further assay is cell line E72. The assay is described as follows: Differentiation of cell line E72 in HyStem, gene expression. In kind it is cell-based, human. The conditions noted are these: E72 passage 11; HyStem-C supplemented with 1.0 uM all-trans retinoic acid. On the procedure:
HyStem-C (BioTime, Inc. Alameda, Calif.) (BioTime, Alameda, Calif., USA) was reconstituted following the manufacturer's instructions. Briefly, the HyStem component (thiol modified hyaluronan, 10 mg) was dissolved in 1.0 ml degassed deionized water for about 20 minutes to prepare a 1% w/v solution. The Gelin-S component (thiol modified gelatin, 10 mg) was dissolved in 1 ml degassed deionized water to prepare a 1% w/v solution, and PEGDA (PEG diacrylate, 10 mg) was dissolved in 0.5 ml degassed deionized water to prepare a 2% w/v solution. HyStem (1 ml, 1% w/v) was mixed with Gelin-S (1 ml, 1% w/v) immediately before use. Pelleted cells were resuspended in recently prepared HyStem:Gelin-S (1:1 v/v) mix described above. Upon the addition of crosslinker PEGDA, the cell suspension, at a final concentration of 2.0×10^7 cells/ml, was aliquoted at 25 μl aliquot four to five times into each well of 6 well plates (Corning 3516) after partial gelation to form attached beads. Following complete gelation (20 minutes), chondrogenic medium was added to each well (i.e about 4 ml/each well of a 6 well plate). […]
The Gelin-S® component (10 mg of thiol-modified gelatin (BioTime)) is dissolved in 1.0 ml of degassed deionized water to prepare a 1% w/v solution, and polyethylene glycol diacrylate (10 mg of PEGDA) is dissolved in 0.5 ml of degassed deionized water to prepare a 2% w/v solution. […] At the desired time point, hydrogel constructs were either fixed and processed for immunohistochemical analysis or lysed using RLT (Qiagen, CA, USA) with 1% beta-mercaptoethanol for total RNA to analyze transcript expression using quantitative real-time PCR (qRT-PCR) and/or whole-genome microarray.
Total RNA was extracted directly from cells growing in 6-well plates or 10 cm tissue culture dishes using Qiagen RNeasy mini kits according to the manufacturer's instructions. RNA concentrations were measured using a Beckman DU530 or Nanodrop spectrophotometer and RNA quality was determined by denaturing agarose gel electrophoresis or using an Agilent 2100 bioanalyzer. […] The cRNA was hybridized to Illumina BeadChips, processed, and read using a BeadStation array reader according to the manufacturer's instructions (Illumina, San Diego, Calif., USA).

The subject of assay [1] is Bone marrow-derived mesenchymal stem cells (MSCs). Briefly: Differentiation of bone marrow-derived MSCs in HyStem-C beads, FABP4 expression. In kind it is cell-based. The conditions noted are these: 14 days, 50 ng/mL BMP2, or 10 ng/mL BMP4, or 100 ng/mL BMP7. The procedure: as §2

As to `CN(CCOc1ccc(CC2SC(=O)NC2=O)cc1)c1ccccn1` (stereo not drawn) [rosiglitazone, reference compound], the ADIPOQ transcript expression in the assay with cell line E3 (E3, HyStem beads with 1.0 μM rosiglitazone, FIG. 3) is given as > 5,000 RFUs. Also, in the assay on cell line E3 (E3, HyStem beads, 1.0 μM rosiglitazone in combination with 100 ng/ml BMP7, values greater than 160 RFUs above background), the UCP1 transcript expression stood at 161 RFUs.

For `C[C@H](Cc1ccc2c(c1)OC(C(=O)[O-])(C(=O)[O-])O2)NC[C@H](O)c1cccc(Cl)c1.[Na+].[Na+]` [CL316243, reference compound], the UCP1 expression result with NP110SM cells is listed as “appeared to further increase”. On to `O=C(Nc1ccncc1)c1cc([N+](=O)[O-])ccc1Cl` [T0070907, reference compound], for which the C19ORF80 expression result in the assay on cell line E3 (HyStem with 10 ng/ml BMP4 plus T0070907, compared to HyStem BMP4 alone, cell line not restated) is on record as “decreased C19ORF80 expression”. Further, in the assay on cell line E3 (presence of the PPARγ antagonist T0070907, FIG. 7, cell line not restated), the THRSP expression result is “decreased to nearly undetectable levels”. As for `CC1=C(/C=C/C(C)=C/C=C/C(C)=C/C(=O)O)C(C)(C)CCC1` [all-trans retinoic acid, reference compound], the “expression of HOXB6, a marker of lateral plate mesenchyme” value in the assay with cell line E72 is “induced the expression of HOXB6”.

B1: BMP7: Bone Morphogenetic Protein 7, TGF-beta superfamily member (protein, UniProt P18075 293-431, looked up)
Bone morphogenetic protein 7: STGSKQRSQNRSKTPKNQEALRMANVAENSSSDQRQACKKHELYVSFRDLGWQDWIIAPEGYAAYYCEGECAFPLNSYMNATNHAIVQTLVHFINPETVPKPCCAPTQLNAISVLYFDDSSNVILKKYRNMVVRACGCH
Turning to B1, in the assay on cell line E3 (E3, HyStem beads with 10 ng/ml BMP4 or 100 ng/ml BMP7, FIG. 5), the PCK1 transcript expression result is on record as “relatively high levels”. In the assay with cell line E3 (E3, HyStem supplemented with 100 ng/ml BMP7), the “expression of C19ORF80” value is “highest expression”. Further, the “differentiation into adipocytes as evidenced by expression of FABP4” value in assay [1] is given as “caused the differentiation of the cells into adipocytes”.

Values taken from patent US20230093399A1, “METHODS FOR GENERATING PLURIPOTENT STEM CELL-DERIVED BROWN FAT CELLS” (AgeX Therapeutics, Inc., priority 2013, published 2023).
